Entries after “also recorded” stand apart in the source; their conditions may differ.
Experiments:
Assay type in all cases: in vivo, Cryptotis parva
Least Shrew [1] = experiment: Emetic effect of arachidonic acid metabolites and leukotrienes in the Least Shrew; conditions: found experimentally
Protocol: Varying doses of leukotriene LTC4 were administered by intraperitoneal injection, and dose-response emetic effects recorded for 30 min post-injection observation period. The graph in FIG. 20 depicts enhancements in the frequency (mean±S.E.M.) of emesis.

[2] = tested on: GR73632-induced emesis and scratching in the Least Shrew; experiment: Antagonist interaction study against GR73632 (5 mg/kg, i.p.)-induced emesis and scratching; conditions: for behavioral effect of antagonist by itself: 20 mg/kg dose, without GR73632
Text: The present protocols were based upon preliminary studies as well as published findings in the Least Shrew. Darmani, 2001a; Darmani et al., 69 Pharmacol. Biochem. Behay. 239-49 (2001b). On the test day, the shrews were allowed to acclimate to the test laboratory for at least one hour prior to experimentation. To habituate the animals to the test environment, each shrew was randomly selected and transferred to a 20 cm×18 cm×21 cm clean clear plastic cage and offered four mealworms (Tenebrio sp.) 30 min prior to experimentation.
The latter doses of SP and GR73632 were chosen for subsequent antagonist interaction studies to pharmacologically characterize the role of NK1 receptors in the mediation of induced emesis by the use of: (1) two selective neurokinin NK1 receptor antagonists (CP99,994 and L733060) (Watson et al., 115 Br. J. Phramacol. 84-94 (1995); Guiard et al., 89 J. Neurochem. 54-63 (2004)); (2) an NK2 receptor antagonist (GR159897) (Beresford et al., 272 Eur. J. Pharmacol. 241-48 (1995)); and (3) an NK3 receptor antagonist (SB218795) (Salthun-Lassalle et al., 1995).
For the above drug interaction studies, different doses (i.p.) of either CP99,994 (0, 5, 10, and 20 mg/kg, n=10-14 shrews per group); L733060 (0, 5, 10, and 20 mg/kg, n=10-14 shrews per group), GR159897 (0 mg/kg and 20 mg/kg, n=8 per group) or SB218795 (0 or 20 mg/kg, n=7-8 per group) were administered to different groups of shrews 30 min prior to injection of an emetic dose (5 mg/kg, i.p.) of the NK1-receptor agonist GR73632. Emesis and scratchings were recorded for 30 min immediately following GR73632 administration as described above. The antiemetic effect of CP99,994 (0, 5, and 10 mg/kg, n=9-10 animals per group) was also investigated in a similar manner against SP (50 mg/kg, i.p.)-induced emesis.
(§1) The data on the frequency of emesis and scratchings were analyzed by the Kruskal-Wallis (KW) nonparametric one-way analysis of variance (ANOVA) and post hoc analysis by Dunn's multiple comparisons test or Mann-Whitney test. A P value of <0.05 was necessary to attain statistical significance. The incidence of emesis (number of shrews vomiting) was analyzed by the Fisher's exact test to determine whether there were differences between groups. When appropriate, pairwise comparisons were also made by this method. Two-way analysis of variance using the Kruskal-Wallis or Fisher's exact tests were initially utilized to respectively analyze the dose-response results of GR73632 on emesis and scratching behaviors, and percentage of shrews vomiting in saporin- and corresponding saline-pretreated control shrews. […] For some emesis data, the two-tailed Mann-Whitney test was used. The SP tissue concentration data were analyzed by a one-way ANOVA followed by Dunnett's t test as post hoc analysis. Fos-IR was quantified by counting immunopositive nuclei within each hemisection containing the region of interest (ROI). The number of nuclei was averaged across sections with the ROI for each animal, and the group mean and standard error obtained.

[3] = tested on: CIS-induced emesis in the Least Shrew; experiment: Tropisetron, Δ^9-THC and dexamethasone alone or in combination against CIS (20 mg/kg)-induced emesis, 60 min
Protocol: Briefly, all animals were randomly divided into two groups. On the test day, shrews were habituated to the laboratory environment for at least 1 hr prior to experimentation. […] All drugs were administered at a volume of 0.1 ml/10 g body weight. Immediately following the second injection, each shrew was placed in the observation cage, and both the number of animals vomiting per group and the frequency of vomiting (oral ejections of food or liquid) were recorded for the next 60 min
Poisson regression and logistic regression analyses were employed for two-way analysis of vomiting frequency and protection from emesis, respectively. […] Data regarding the frequency of emesis were analyzed by the Kruskal-Wallis nonparametric one-way analysis of variance (ANOVA), and post hoc analysis by Dunn's multiple comparisons test. The incidence of emesis (number of animals vomiting) was analyzed by Fisher's exact test to determine whether there were differences between groups, and when appropriate, pairwise comparisons were also made. A p value of<0.05 was necessary to achieve statistical significance.

Least Shrew [4] = experiment: Dose response emesis and scratching studies with tachykinin receptor agonists
Text: The present protocols were based upon preliminary studies as well as published findings in the Least Shrew. Darmani, 2001a; Darmani et al., 69 Pharmacol. Biochem. Behay. 239-49 (2001b). On the test day, the shrews were allowed to acclimate to the test laboratory for at least one hour prior to experimentation. To habituate the animals to the test environment, each shrew was randomly selected and transferred to a 20 cm×18 cm×21 cm clean clear plastic cage and offered four mealworms (Tenebrio sp.) 30 min prior to experimentation. […]
as §1

[5] = 1 mg/kg i.p., administered alone
[6] = 5 mg/kg i.p., administered alone
[7] = tropisetron 0.1 mg/kg with 0.5 mg/kg Δ^9-THC
[8] = tropisetron 0.25 mg/kg with 0.25 mg/kg Δ^9-THC
[9] = tropisetron 0.25 mg/kg with 0.5 mg/kg Δ^9-THC
[10] = tropisetron 1 mg/kg with 0.1 mg/kg Δ^9-THC
[11] = tropisetron 1 mg/kg with 0.25 mg/kg Δ^9-THC
[12] = tropisetron 1 mg/kg with 0.5 mg/kg Δ^9-THC
[13] = tropisetron 5 mg/kg with 0.1 mg/kg Δ^9-THC
[14] = tropisetron 5 mg/kg with 0.25 mg/kg Δ^9-THC
[15] = tropisetron 5 mg/kg with 0.5 mg/kg Δ^9-THC

Molecule: O=C(O)CCC/C=C\C[C@H]1C(=O)C[C@@H](O)[C@@H]1/C=C/[C@@H](O)CCCCCO [20 Hydroxy PGE2]
- emesis in the Least Shrew (Least Shrew [1]): produce emesis

Molecule: O=C(O)CCC/C=C\C[C@@H]1[C@@H](/C=C/[C@@H](O)CCCCCO)[C@H](O)C[C@@H]1O [20 Hydroxy PGE2α]
- emesis in the Least Shrew (Least Shrew [1]): produce emesis

Molecule: COC1(C[S@@+]([O-])c2ccccc2)CCN(CCc2c[nH]c3ccc(F)cc23)CC1 [GR159897, 5-Flouro-3-[2-[4-methoxy-4-[[(R)-phenylsulphinyl]methyl]-1-piperidinyl]ethyl]-1H-indole]
- behavioral effect of antagonist by itself [2]: did not produce any behavioral effect
- enhancement of frequency of GR73632-induced emesis ([2]; antagonist 20 mg/kg i.p.): did not attain significance
- enhancement of frequency of GR73632-induced scratching ([2]; antagonist 20 mg/kg i.p.): did not attain significance
- percentage of shrews vomiting in response to GR73632 ([2]; antagonist 20 mg/kg i.p.): failed to affect

Molecule: Cl.FC(F)(F)c1cc(CO[C@H]2CCCN[C@H]2c2ccccc2)cc(C(F)(F)F)c1 [L733060]
- reduction in frequency of GR73632-induced emesis ([2]; antagonist 5 mg/kg i.p.): 62%
- reduction in percentage of shrews vomiting in response to GR73632 ([2]; antagonist 5 mg/kg i.p.): 33%
- reduction of GR73632-induced scratchings ([2]; antagonist 5 mg/kg i.p.): 63%
- reduction in frequency of GR73632-induced emesis ([2]; antagonist 10 mg/kg i.p.): 74%
- reduction in percentage of shrews vomiting in response to GR73632 ([2]; antagonist 10 mg/kg i.p.): 53%
- reduction of GR73632-induced scratchings ([2]; antagonist 10 mg/kg i.p.): 69%
- reduction in frequency of GR73632-induced emesis ([2]; antagonist 20 mg/kg i.p.): 95%
- reduction in percentage of shrews vomiting in response to GR73632 ([2]; antagonist 20 mg/kg i.p.): 73%
- reduction of GR73632-induced scratchings ([2]; antagonist 20 mg/kg i.p.): 54%
- onset of first emesis induced by GR73632 ([2]; at highest tested effective antiemetic doses): only delayed the onset of first emesis

Molecule: CCCCC/C=C\C\C=C/C=C/C=C/[C@@H]1O[C@H]1CCCC(=O)O [LTA4]
- emesis in the Least Shrew (Least Shrew [1]): non-emetic

Molecule: CCCCC/C=C\C[C@@H](O)/C=C/C=C/C=C\[C@@H](O)CCCC(=O)O [LTB4]
- emesis in the Least Shrew (Least Shrew [1]): non-emetic

Molecule: CCCCC/C=C\C\C=C/C=C/C=C/[C@@H](SC[C@H](NC(=O)CC[C@H](N)C(=O)O)C(=O)NCC(=O)O)[C@@H](O)CCCC(=O)O [LTC4]
- emesis in the Least Shrew (Least Shrew [1]): potent emetogens; also recorded: produce emesis

Molecule: CCCCC/C=C\C\C=C/C=C/C=C/[C@@H](SC[C@H](N)C(=O)NCC(=O)O)[C@@H](O)CCCC(=O)O [LTD4]
- emesis in the Least Shrew (Least Shrew [1]): potent emetogens; also recorded: produce emesis

Molecule: CCCCC/C=C\C\C=C/C=C/C=C/[C@@H](SC[C@H](N)C(=O)O)[C@@H](O)CCCC(=O)O [LTE4]
- emesis in the Least Shrew (Least Shrew [1]): non-emetic

Molecule: CCCCC/C=C\C\C=C/C=C/C=C/[C@@H](SC[C@H](NC(=O)CC[C@@H](N)C(=O)O)C(=O)O)[C@@H](O)CCCC(=O)O [LTF4]
- emesis in the Least Shrew (Least Shrew [1]): non-emetic

Molecule: CCCCC[C@H](O)/C=C/[C@H]1C(=O)C[C@H](O)[C@@H]1C/C=C\CCCC(=O)O [PGD2]
- emesis in the Least Shrew (Least Shrew [1]): non-emetic

Molecule: CCCCC[C@H](O)/C=C/[C@H]1[C@H](O)CC(=O)[C@@H]1C/C=C\CCCC(=O)O [PGE2]
- emesis in the Least Shrew (Least Shrew [1]): non-emetic

Molecule: CCCCC[C@H](O)/C=C/[C@@H]1[C@@H](C/C=C\CCCC(=O)O)[C@@H](O)C[C@H]1O [PGF2α]
- emesis in the Least Shrew (Least Shrew [1]): produce emesis

Molecule: CCCCC[C@@H](/C=C/[C@@H]1[C@@H](C/C=C\CCCC(=O)O)[C@@H]2C[C@H]1OO2)OO [PGG2]
- emesis in the Least Shrew (Least Shrew [1]): produce emesis

Molecule: CCCCC[C@H](O)/C=C/[C@@H]1[C@H]2C/C(=C/CCCC(=O)O)O[C@H]2C[C@H]1O [PGI2]
- emesis in the Least Shrew (Least Shrew [1]): non-emetic

Molecule: COC(=O)C(NC(=O)c1cc(-c2ccccc2)nc2ccccc12)c1ccccc1 (centres unmarked) [SB218795]
- behavioral effect of antagonist by itself [2]: did not produce any behavioral effect
- enhancement of frequency of GR73632-induced emesis ([2]; antagonist 20 mg/kg i.p.): did not attain significance
- enhancement of frequency of GR73632-induced scratching ([2]; antagonist 20 mg/kg i.p.): did not attain significance
- percentage of shrews vomiting in response to GR73632 ([2]; antagonist 20 mg/kg i.p.): failed to affect

Molecule: CCCCC/C=C\C/C=C\C/C=C\C/C=C\CCCC(=O)O [arachidonic acid]
- emesis in the Least Shrew (Least Shrew [1]): produce emesis

Molecule: CN1[C@@H]2CC[C@H]1C[C@@H](OC(=O)c1c[nH]c3ccccc13)C2 [tropisetron]
- reduction in frequency of CIS-induced emesis ([3]; 0.25 mg/kg i.p., administered alone): 79%
- reduction in frequency of CIS-induced emesis [3, 5]: 94%
- reduction in percentage of shrews vomiting in response to CIS [3, 5]: 75%
- reduction in frequency of CIS-induced emesis [3, 6]: 99.8%
- reduction in percentage of shrews vomiting in response to CIS [3, 6]: 92%
- reduction in number of shrews vomiting, over tested doses ([3]; drug by itself, dose-dependent): completely protected
- reduction in frequency of CIS-induced emesis ([3]; tropisetron 0.025 mg/kg with 0.25 mg/kg Δ^9-THC): 60%
- reduction in frequency of CIS-induced emesis ([3]; tropisetron 0.1 mg/kg with 0.25 mg/kg Δ^9-THC): 59.8%
- reduction in frequency of CIS-induced emesis [3, 7]: 57.5%
- reduction in percentage of shrews vomiting in response to CIS [3, 7]: 58%
- reduction in frequency of CIS-induced emesis ([3]; tropisetron 0.25 mg/kg with 0.1 mg/kg Δ^9-THC, vs 0 mg/kg tropisetron): 88%
- reduction in frequency of CIS-induced emesis [3, 8]: 84%
- reduction in percentage of shrews vomiting in response to CIS [3, 8]: 50%
- reduction in frequency of CIS-induced emesis [3, 9]: 70%
- reduction in percentage of shrews vomiting in response to CIS [3, 9]: 50%
- reduction in frequency of CIS-induced emesis [3, 10]: 90.6%
- reduction in percentage of shrews vomiting in response to CIS [3, 10]: 78%
- reduction in frequency of CIS-induced emesis [3, 11]: 100%
- reduction in percentage of shrews vomiting in response to CIS [3, 11]: 100%
- reduction in frequency of CIS-induced emesis [3, 12]: 70.1%
- reduction in percentage of shrews vomiting in response to CIS [3, 12]: 83%
- reduction in frequency of CIS-induced emesis [3, 13]: 89.4%
- reduction in percentage of shrews vomiting in response to CIS [3, 13]: 71%
- reduction in frequency of CIS-induced emesis [3, 14]: 93%
- reduction in percentage of shrews vomiting in response to CIS [3, 14]: 70%
- reduction in frequency of CIS-induced emesis [3, 15]: 69.8%
- reduction in percentage of shrews vomiting in response to CIS [3, 15]: 58%
- effect on frequency of CIS-induced vomiting ([3]; tropisetron, all doses, combined with 1 mg/kg or 5 mg/kg Δ^9-THC): None of the cited doses of tropisetron had a significant effect
- effect on percentage of shrews vomiting ([3]; tropisetron, any dose, with 1 mg/kg and 5 mg/kg Δ^9-THC): no dose of tropisetron significantly altered

Molecule: [Lys^3, Gly^8-R-gamma-lactam-leu^9]Neurokinin-A (3-10) [GR64349]
- produced emesis or significant scratchings (Least Shrew [4]; doses up to 10 mg/kg i.p.): neither

Molecule: [Sar^9, Met (O2)”]-Substance P [Sar Met-SP]
- percentage of shrews vomiting (Least Shrew [4]; 1 mg/kg i.p.): 20%
- percentage of shrews vomiting (Least Shrew [4]; 5 mg/kg i.p.): 33%
- percentage of shrews vomiting (Least Shrew [4]; 10 mg/kg i.p.): 0%

Molecule: acetyl-[Arg, Sar^9, Met (O2)^11]-SP (6-11) [ASMSP]
- percentage of shrews vomiting (Least Shrew [4]; 5 mg/kg i.p.): 37%
- percentage of shrews vomiting (Least Shrew [4]; 10 mg/kg i.p.): 50%
- percentage of shrews vomiting (Least Shrew [4]; 20 mg/kg i.p.): 50%
